In patent EP0584223B1, “NOVEL IMMUNOSUPPRESSIVE COMPOUNDS” (VERTEX PHARMACEUTICALS INCORPORATED, priority 1991, dated 1992):

Legend:
[1] = system: PBLs stimulated with JVM human viral-transformed B lymphoblastoid cell line; test: MLR bioassay, PBLs stimulated with JVM cells; format: cell-based; details: mixed lymphocyte reaction, JVM stimulator cells, inhibition of proliferation, read-out: JVM
Text: (§1) Fresh peripheral blood lymphocytes (PBLs) from LeukoPak cells or whole blood from random normal blood donors (tested HIV-negative and hepatitis negative) are isolated and separated by density centrifugation over Histopaque 1077 (Sigma Chemical Co., St. Louis, MO). The murine CTLL cytotoxic T cell line and the human Jurkat T cell line are from ATCC (CTLL-2 ATCC TIB214, JURKAT CLONE E6-1 ATCC TIBl52). The human allogeneic B cell lines used for activation of the fresh PBLs are EBV-transformed lymphocytes from normal healthy adult donors with two completely different HLA haplotypes. All cell lines were routinely tested for the presence of Mycoplasma contamination using the Gibco Mycotect test kit and are Mycoplasma-free. Culture medium consists of RPMI 1640 (Gibco, Grand Island, NY) containing penicillin (50 U/ml) and streptomycin (50 µg/ml), L-glutamine 2 mM, 2 mercaptoethanol (5 x 10^-5), 10% heat-inactivated FCS and 10 mM HEPES.
(§2) All chemical stocks were dissolved in DMSO.
(§3) Antigen activated proliferation of PBLs in a primary mixed lymphocyte reaction was assessed in the presence or absence of different concentrations of tested compounds and control drugs. 5 x 10^4 fresh PBLs were stimulated with 5 x 10^3 of Mitomycin C treated-allogeneic EBV-transformed […] cells, LB and JVM, in a final volume of 200 µl per well in 96-well round-bottomed plates (Mishell, B.B. and S.M. Shiigi, Selected Methods in Cellular Immunology W.H. Freeman and Co., San Francisco, CA (1980); Nelson, P.A. et al., Transplantation 50:286 (1990)). Cultures were pulsed on day 6, harvested 24 h later and counted as in previous section.

[2] = system: CTLL-20 murine T cell line; test: IL-2 microassay, IL-2 dependent CTLL proliferation; format: cell-based; details: Mus musculus; inhibition of proliferation of cytotoxic T cells stimulated by IL-2; read-out: CTLL
Text: (§4) Fresh peripheral blood lymphocytes (PBLs) from LeukoPak cells or whole blood from random normal blood donors (tested HIV-negative and hepatitis negative) are isolated and separated by density centrifugation over Histopaque 1077 (Sigma Chemical Co., St. Louis, MO). […] The human allogeneic B cell lines used for activation of the fresh PBLs are EBV-transformed lymphocytes from normal healthy adult donors with two completely different HLA haplotypes. All cell lines were routinely tested for the presence of Mycoplasma contamination using the Gibco Mycotect test kit and are Mycoplasma-free. Culture medium consists of RPMI 1640 (Gibco, Grand Island, NY) containing penicillin (50 U/ml) and streptomycin (50 µg/ml), L-glutamine 2 mM, 2 mercaptoethanol (5 x 10^-5), 10% heat-inactivated FCS and 10 mM HEPES.

[3] = system: human peripheral blood lymphocytes (PBC); test: Mitogenesis assay, PMA plus ionomycin stimulated proliferation; format: cell-based; details: Lymphocyte, read-out: PMA
Text: as §4

[4] = system: PBLs stimulated with LB human viral-transformed B lymphoblastoid cell line; test: MLR bioassay, PBLs stimulated with LB cells; format: cell-based; details: mixed lymphocyte reaction, LB stimulator cells, inhibition of proliferation, read-out: LB
Text: as §1, §2, §3

[5] = system: human peripheral blood lymphocytes (PBC); test: Mitogenesis assay, OKT3 stimulated proliferation; format: cell-based; details: Lymphocyte, OKT3 (10^-4 dilution final), inhibition of proliferation, 3H-thymidine, read-out: OKT3
Text: as §4

FKBP = FKBP (Homo sapiens, UniProt P62942); test: Inhibition of FKBP PPIase (rotamase) activity, chymotrypsin-coupled assay; format: biochemical; details: apparent Ki
Text: The inhibition of the PPIase (rotamase) enzyme activity of the FKBP (apparent "Ki" values) can also be measured according to the methods described by either Harding, M.W. et al., Nature 341:758-760 (1989) or Siekierka, J.J. et al., Nature 341:755-757 (1989). The cis-trans isomerization of the […] peptide bond in a model substrate, N-succinyl-Ala-Ala-Pro-Phe-p-nitroanilide, is monitored spectrophotometrically in a coupled assay with chymotrypsin, which releases 4-nitroanilide from the trans form of the substrate. Fischer, G. et al., Nature 337:476-478 (1989). The inhibitory effect of the addition of different concentrations of inhibitor on the extent of the reaction is determined, and analysis of the change in first order rate constant as a function of inhibitor concentration yields an estimate of the apparent Ki value.

FKBP, sequence (P62942 whole entry): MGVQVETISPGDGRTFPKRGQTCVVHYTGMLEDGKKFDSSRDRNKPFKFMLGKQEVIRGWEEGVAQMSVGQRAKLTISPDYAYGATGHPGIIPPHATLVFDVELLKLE

COc1cc(C(=O)C(=O)N2CCCC[C@H]2C(=O)OC(CCCc2ccccc2)CCCc2ccccc2)cc(OC)c1OC [Compound 3, (S)-1,7-Diphenyl-4-heptanyl N-(3,4,5-trimethoxyphenylglyoxyl)pipecolate]
IC50 [1]: 8.5 µM | IC50 [2]: 8 µM | IC50 ([3]; 3 h): > 8 µM | IC50 [4]: 10 µM | IC50 [5]: 2.25 µM

COc1cc(C(=O)C(=O)N2CCCC[C@H]2C(=O)OC(CCCc2c[nH]c3ccccc23)Cc2ccccc2)cc(OC)c1OC (mixture of isomers) [Compound 11, (R and S)-5-(3-indolyl)-1-phenyl-2-pentyl (S)-N-(3,4,5-trimethoxyphenylglyoxyl)pipecolate]
IC50 [1]: 6.5 µM | IC50 [2]: 10 µM | IC50 ([3]; 3 h): 2.7 µM | IC50 [4]: 3.5 µM | Ki (FKBP): 0.024 µM | IC50 [5]: 2 µM

COc1cc(C(=O)C(=O)N2CCCC[C@H]2C(=O)OC(CCCCCc2ccccc2)CCCc2ccccc2)cc(OC)c1OC (stereo partly shown) [Compound 41]
IC50 [1]: 10 µM | IC50 [2]: > 10 µM | IC50 ([3]; 3 h): 7 µM | IC50 [4]: > 10 µM | Ki (FKBP): 0.045 µM | IC50 [5]: > 10 µM

COc1cc(C(=O)C(=O)N2CCCC[C@H]2C(=O)OC(CCCCc2ccccc2)CCCc2ccccc2)cc(OC)c1OC (stereo partly shown) [Compound 32]
IC50 [1]: > 10 µM | IC50 [2]: 7.5 µM | IC50 ([3]; 3 h): 9 µM | IC50 [4]: > 10 µM | Ki (FKBP): 0.02 µM | IC50 [5]: 8 µM

COc1cc(C(=O)C(=O)N2CCCC[C@H]2C(=O)OC(CCCc2ccccc2)Cc2ccccc2)cc(OC)c1OC (stereo partly shown) [Compound 10]
IC50 [1]: 8 µM | IC50 [2]: 6 µM | IC50 ([3]; 3 h): 5.5 µM | IC50 [4]: 5.5 µM | Ki (FKBP): 0.032 µM | IC50 [5]: 4 µM

COc1cc(C(=O)C(=O)N2CCCC[C@H]2C(=O)OC(CCCc2ccccc2)CCCn2cnc3ccccc32)cc(OC)c1OC (stereo partly shown) [Compound 15]
IC50 [1]: 8 µM | IC50 [2]: 5 µM | IC50 [3]: 3 µM | IC50 [4]: 6 µM | IC50 [5]: 3 µM

COc1cc(C(=O)C(=O)N2CCCC[C@H]2C(=O)OC(CCCc2ccccc2)CCCc2ccc[n+]([O-])c2)cc(OC)c1OC (mixture of isomers) [Compound 22, (R and S)-1-Phenyl-7-(3-pyridyl)-4-heptyl (S)-N-(3,4,5-trimethoxyphenylglyoxyl)pipecolate N-oxide]
IC50 [1]: 2.5 µM | IC50 [2]: 2.3 µM | IC50 [3]: 1.5 µM | IC50 [4]: 2.2 µM | IC50 [5]: 1.6 µM

COc1cc(C(=O)C(=O)N2CCCC[C@H]2C(=O)OC(CCCCc2ccccc2)CCCc2cccs2)cc(OC)c1OC (stereo partly shown) [Compound 40]
IC50 [1]: > 10 µM | IC50 [2]: 10 µM | IC50 ([3]; 3 h): > 10 µM | IC50 [4]: > 10 µM | Ki (FKBP): 1.1 µM | IC50 [5]: > 10 µM

COc1cc(C(=O)C(=O)N2CCCC[C@H]2C(=O)OC(CCCc2ccccc2)CCc2ccccc2)cc(OC)c1OC (stereo partly shown) [Compound 12]
IC50 [1]: 10 µM | IC50 [2]: 8.1 µM | IC50 ([3]; 3 h): 7 µM | IC50 [4]: 10 µM | Ki (FKBP): 0.083 µM | IC50 [5]: 5 µM

COc1cc(C(=O)C(=O)N2CCCC[C@H]2C(=O)OC(CCCc2ccccc2)CCCn2ccc3cccnc32)cc(OC)c1OC (stereo partly shown) [Compound 23]
IC50 [1]: 6 µM | IC50 [2]: 3.5 µM | IC50 [3]: 5 µM | IC50 [4]: 7 µM | IC50 [5]: 7 µM

COc1ccc(CCC(CCCc2ccccc2)OC(=O)[C@@H]2CCCCN2C(=O)C(=O)c2ccccc2)cc1 (stereo partly shown) [Compound 14]
IC50 [1]: > 10 µM | IC50 [2]: > 10 µM | IC50 ([3]; 3 h): > 10 µM | IC50 [4]: > 10 µM | Ki (FKBP): 0.27 µM | IC50 [5]: > 10 µM

C=CCOc1cccc(C(=O)C(=O)N2CCCC[C@H]2C(=O)OC(CCCc2ccccc2)CCCc2cccnc2)c1 (stereo partly shown) [Compound 28]
IC50 [1]: 9 µM | IC50 [2]: 3 µM | IC50 ([3]; 3 h): 5 µM | IC50 [4]: 8 µM | Ki (FKBP): 0.011 µM | IC50 [5]: 6 µM

COc1cc(C(=O)C(=O)N2CCCC[C@H]2C(=O)OC(CCCc2ccccc2)c2cccnc2)cc(OC)c1OC (stereo partly shown) [Compound 39]
IC50 [1]: 5 µM | IC50 [2]: 2.5 µM | IC50 ([3]; 3 h): 6 µM | Ki (FKBP): 0.01 µM | IC50 [5]: 5.5 µM

COc1cc(C(=O)C(=O)N2CCC[C@H]2C(=O)OC(CCCc2ccccc2)CCCc2ccccn2)cc(OC)c1OC (stereo partly shown) [Compound 2]
IC50 [1]: 7 µM | IC50 [2]: 4 µM | IC50 ([3]; 3 h): 3.5 µM | IC50 [4]: 8 µM | Ki (FKBP): 0.095 µM | IC50 [5]: 1.5 µM

CC(C)(C)C(=O)C(=O)N1CCCC[C@H]1C(=O)OC(CCCc1ccccc1)CCCc1ccccn1 (mixture of isomers) [Compound 21, (R and S)-1-Phenyl-7-(2-pyridyl)-4-heptyl (S)-N-(tert-butylglyoxyl)-pipecolate]
IC50 [1]: 7 µM | IC50 [2]: 4 µM | IC50 ([3]; 3 h): 7 µM | IC50 [4]: 6 µM | Ki (FKBP): 0.036 µM | IC50 [5]: 3 µM

O=C(C(=O)N1CCCC[C@H]1C(=O)OC(CCCc1ccccc1)CCCc1cccnc1)c1ccccc1 (stereo partly shown) [Compound 18]
IC50 [1]: 9 µM | IC50 [2]: 7 µM | IC50 ([3]; 3 h): 5 µM | IC50 [4]: 8 µM | Ki (FKBP): 0.056 µM | IC50 [5]: 7 µM

COc1cc(C(=O)C(=O)N2CCCC[C@H]2C(=O)OC(CCCc2ccccc2)CCCc2cccnc2)cc(OC)c1OC (mixture of isomers) [Compound 9, (R and S)-1-Phenyl-7-(3-pyridyl)-4-heptyl (S)-N-(3,4,5-trimethoxyphenylglyoxyl)pipecolate]
IC50 [1]: 6 µM | IC50 [2]: 2.5 µM | IC50 ([3]; 3 h): 1.8 µM | IC50 [4]: 6 µM | IC50 [5]: 1.2 µM

O=C(C(=O)N1CCCC[C@H]1C(=O)OC(CCCc1ccccc1)CCCc1ccccn1)c1ccccc1 (stereo partly shown) [Compound 19]
IC50 [1]: 10 µM | IC50 [2]: 5 µM | IC50 ([3]; 3 h): 6 µM | IC50 [4]: 10 µM | Ki (FKBP): 0.05 µM | IC50 [5]: 8 µM

COc1cc(C(=O)C(=O)N2CCCC[C@H]2C(=O)OC(CCCc2ccccc2)CCc2cccnc2)cc(OC)c1OC (mixture of isomers) [Compound 7, (R and S)-6-Phenyl-1-(3-pyridyl)-3-hexyl (S)-N-(3,4,5-trimethoxyphenylglyoxyl)pipecolate]
IC50 [1]: 5 µM | IC50 [2]: 2 µM | IC50 ([3]; 3 h): 2 µM | IC50 [4]: 5 µM | IC50 [5]: 2 µM

COc1cc(C(=O)C(=O)N2CCCC[C@H]2C(=O)OC(CCCc2ccccc2)c2ccccc2CO)cc(OC)c1OC (stereo partly shown) [Compound 33]
IC50 [1]: 4.5 µM | IC50 [2]: 3 µM | IC50 ([3]; 3 h): 5 µM | IC50 [4]: 2 µM | Ki (FKBP): 0.089 µM | IC50 [5]: 5 µM

COc1cc(C(=O)C(=O)N2CCCC[C@H]2C(=O)OC(CCCc2ccccc2)c2cccc(Oc3ccccc3)c2)cc(OC)c1OC (mixture of isomers) [Compound 4, (R and S)-1-(3-Phenoxy)phenyl-4-phenyl-1-butyl (S)-N-(3,4,5-trimethoxyphenylglyoxyl)pipecolate]
IC50 [1]: > 10 µM | IC50 [2]: > 10 µM | IC50 ([3]; 3 h): > 10 µM | IC50 [4]: > 10 µM | Ki (FKBP): 0.22 µM | IC50 [5]: > 10 µM

COc1cc(C(=O)C(=O)N2CCCC[C@H]2C(=O)OC(CCCc2ccccc2)c2ccccc2O)cc(OC)c1OC (stereo partly shown) [Compound 38]
IC50 [1]: > 10 µM | IC50 [2]: > 10 µM | IC50 [3]: > 10 µM | IC50 [4]: > 10 µM | IC50 [5]: 5 µM

O=C(C(=O)N1CCCC[C@H]1C(=O)OC(CCCc1ccccc1)CCCc1cccnc1)c1cccc(OCc2ccccc2)c1 (stereo partly shown) [Compound 27]
IC50 [1]: 6 µM | IC50 [2]: 5 µM | IC50 ([3]; 3 h): 6 µM | IC50 [4]: 10 µM | Ki (FKBP): 0.015 µM | IC50 [5]: 4 µM

COc1cc(C(=O)C(=O)N2CCCC[C@H]2C(=O)OCC(CCc2ccccc2)Cc2ccccc2)cc(OC)c1OC (mixture of isomers) [Compound 16, (R and S)-2-Benzyl-4-phenyl-1-butyl (S)-N-(3,4,5-trimethoxyphenylglyoxyl)pipecolate]
IC50 [1]: > 10 µM | IC50 [2]: 6 µM | IC50 ([3]; 3 h): 5 µM | IC50 [4]: 9 µM | Ki (FKBP): 0.057 µM | IC50 [5]: 7 µM
